Assay results reported in the supplement of paper PMC13380429.

Legend:
Details in all cases: 72 h
[1] = system: U2OS; experiment: relative viability EC50 (midpoint between 100% and the lowest measured viability); higher = less toxic
[2] = system: Caco-2; experiment: as above
[3] = system: HepG2; experiment: as above
[4] = system: Vero E6; experiment: cell viability relative to DMSO; higher = less toxic
[5] = system: U2OS; experiment: as above
[6] = system: Caco-2; experiment: as above
[7] = system: HepG2; experiment: as above
[8] = system: Calu-3; experiment: as above
[9] = system: Vero E6; experiment: drug sensitivity score (DSS) for viability; higher = more toxic; extreme values may be limits of the assay
[10] = system: U2OS; experiment: as above
[11] = system: Caco-2; experiment: as above
[12] = system: HepG2; experiment: as above
[13] = system: Calu-3; experiment: as above
[14] = system: Vero E6; experiment: relative viability EC50 (midpoint between 100% and the lowest measured viability); higher = less toxic

Structure (SMILES): Oc1nc(-c2ccc(C(F)(F)F)cc2)nc2c1CSCC2 [XAV-939]
- relative viability EC50 [1]: > 10 µM
- relative viability EC50 [2]: > 10 µM
- relative viability EC50 [3]: > 10 µM
- cell viability ([4]; 1 nM): 94.6%
- cell viability ([4]; 10 nM): 98.5%
- cell viability ([4]; 100 nM): 97%
- cell viability ([4]; 1000 nM): 90.4%
- cell viability ([4]; 10000 nM): 69.6%
- cell viability ([5]; 1 nM): 105%
- cell viability ([5]; 10 nM): 101%
- cell viability ([5]; 100 nM): 101%
- cell viability ([5]; 1000 nM): 99.2%
- cell viability ([5]; 10000 nM): 96.4%
- cell viability ([6]; 1 nM): 103%
- cell viability ([6]; 10 nM): 97%
- cell viability ([6]; 100 nM): 99.8%
- cell viability ([6]; 1000 nM): 92.3%
- cell viability ([6]; 10000 nM): 101%
- cell viability ([7]; 1 nM): 101%
- cell viability ([7]; 10 nM): 108%
- cell viability ([7]; 100 nM): 98.2%
- cell viability ([7]; 1000 nM): 99.7%
- cell viability ([7]; 10000 nM): 94.4%
- cell viability ([8]; 1 nM): 110%
- cell viability ([8]; 10 nM): 94%
- cell viability ([8]; 100 nM): 97.1%
- cell viability ([8]; 1000 nM): 84.1%
- cell viability ([8]; 10000 nM): 71.7%
- drug sensitivity score [9]: 2.4
- drug sensitivity score [10]: 0
- drug sensitivity score [11]: 0
- drug sensitivity score [12]: 0
- drug sensitivity score [13]: 2.7

Structure (SMILES): CC(=O)O[C@]1(C(C)=O)CC[C@H]2[C@@H]3C=CC4=CC(=O)CC[C@]4(C)[C@H]3CC[C@@]21C [6,7-dehydro-17-acetoxy-progesterone]
- relative viability EC50 [14]: > 10 µM
- relative viability EC50 [1]: > 10 µM
- relative viability EC50 [2]: > 10 µM
- relative viability EC50 [3]: > 10 µM
- cell viability ([4]; 1 nM): 106%
- cell viability ([4]; 10 nM): 99.5%
- cell viability ([4]; 100 nM): 104%
- cell viability ([4]; 1000 nM): 98.1%
- cell viability ([4]; 10000 nM): 98.2%
- cell viability ([5]; 1 nM): 96.4%
- cell viability ([5]; 10 nM): 99.6%
- cell viability ([5]; 100 nM): 97.3%
- cell viability ([5]; 1000 nM): 101%
- cell viability ([5]; 10000 nM): 94.8%
- cell viability ([6]; 1 nM): 95.6%
- cell viability ([6]; 10 nM): 97.5%
- cell viability ([6]; 100 nM): 93.7%
- cell viability ([6]; 1000 nM): 92.8%
- cell viability ([6]; 10000 nM): 92.6%
- cell viability ([7]; 1 nM): 102%
- cell viability ([7]; 10 nM): 103%
- cell viability ([7]; 100 nM): 105%
- cell viability ([7]; 1000 nM): 105%
- cell viability ([7]; 10000 nM): 98%
- drug sensitivity score [9]: 0
- drug sensitivity score [10]: 0
- drug sensitivity score [11]: 0
- drug sensitivity score [12]: 0

Structure (SMILES): N=C(N)NC(=O)c1cnccn1 [pyrazinoylguanidine]
- relative viability EC50 [14]: > 10 µM
- relative viability EC50 [2]: > 10 µM
- relative viability EC50 [3]: > 10 µM
- cell viability ([4]; 1 nM): 99.8%
- cell viability ([4]; 10 nM): 106%
- cell viability ([4]; 100 nM): 104%
- cell viability ([4]; 1000 nM): 106%
- cell viability ([4]; 10000 nM): 99.7%
- cell viability ([6]; 1 nM): 107%
- cell viability ([6]; 10 nM): 100%
- cell viability ([6]; 100 nM): 101%
- cell viability ([6]; 1000 nM): 99.7%
- cell viability ([6]; 10000 nM): 101%
- cell viability ([7]; 1 nM): 104%
- cell viability ([7]; 10 nM): 97.1%
- cell viability ([7]; 100 nM): 94.9%
- cell viability ([7]; 1000 nM): 99.1%
- cell viability ([7]; 10000 nM): 104%
- drug sensitivity score [9]: 0
- drug sensitivity score [11]: 0
- drug sensitivity score [12]: 0

Structure (SMILES): Nc1ncnc2c1c(-c1ccc(Cl)cc1)nn2-c1cccc(-c2cnnn2Cc2cccc(-c3ccccc3)c2)c1 [KB-SRC-4]
- relative viability EC50 [14]: > 10 µM
- relative viability EC50 [1]: > 10 µM
- relative viability EC50 [2]: > 10 µM
- relative viability EC50 [3]: > 10 µM
- cell viability ([4]; 1 nM): 97.7%
- cell viability ([4]; 10 nM): 99.1%
- cell viability ([4]; 100 nM): 95.9%
- cell viability ([4]; 1000 nM): 93.7%
- cell viability ([4]; 10000 nM): 105%
- cell viability ([5]; 1 nM): 95.2%
- cell viability ([5]; 10 nM): 96.5%
- cell viability ([5]; 100 nM): 95.5%
- cell viability ([5]; 1000 nM): 101%
- cell viability ([5]; 10000 nM): 103%
- cell viability ([6]; 1 nM): 99.1%
- cell viability ([6]; 10 nM): 94.7%
- cell viability ([6]; 100 nM): 99.7%
- cell viability ([6]; 1000 nM): 93.6%
- cell viability ([6]; 10000 nM): 101%
- cell viability ([7]; 1 nM): 107%
- cell viability ([7]; 10 nM): 98.4%
- cell viability ([7]; 100 nM): 99.1%
- cell viability ([7]; 1000 nM): 99.5%
- cell viability ([7]; 10000 nM): 111%
- drug sensitivity score [9]: 0
- drug sensitivity score [10]: 0
- drug sensitivity score [11]: 0
- drug sensitivity score [12]: 0

Structure (SMILES): O=c1ccn([C@@H]2O[C@H](CO)[C@@H](O)[C@H]2O)c(=O)[nH]1 [uridine]
- drug sensitivity score [9]: 0
- drug sensitivity score [10]: 0
- drug sensitivity score [12]: 0.8
- drug sensitivity score [13]: 0

Structure (SMILES): O=C(NO)c1ccc2[nH]c(=O)c(CCCc3ccccc3)nc2c1 [TCS-2210]
- relative viability EC50 [14]: > 10 µM
- relative viability EC50 [2]: > 10 µM
- relative viability EC50 [3]: 2.44 µM
- cell viability ([4]; 1 nM): 87.5%
- cell viability ([4]; 10 nM): 96.1%
- cell viability ([4]; 100 nM): 89%
- cell viability ([4]; 1000 nM): 98.4%
- cell viability ([4]; 10000 nM): 101%
- cell viability ([5]; 1 nM): 99.1%
- cell viability ([5]; 10 nM): 96.3%
- cell viability ([5]; 100 nM): 102%
- cell viability ([5]; 1000 nM): 94.4%
- cell viability ([5]; 10000 nM): 66.8%
- cell viability ([6]; 1 nM): 94.2%
- cell viability ([6]; 10 nM): 95.8%
- cell viability ([6]; 100 nM): 101%
- cell viability ([6]; 1000 nM): 94.8%
- cell viability ([6]; 10000 nM): 96.4%
- cell viability ([7]; 1 nM): 108%
- cell viability ([7]; 10 nM): 96.5%
- cell viability ([7]; 100 nM): 100%
- cell viability ([7]; 1000 nM): 94.7%
- cell viability ([7]; 10000 nM): 39.9%
- cell viability ([8]; 1 nM): 136%
- cell viability ([8]; 10 nM): 93.7%
- cell viability ([8]; 100 nM): 98%
- cell viability ([8]; 1000 nM): 78.4%
- cell viability ([8]; 10000 nM): 62%
- drug sensitivity score [9]: 0
- drug sensitivity score [10]: 2.4
- drug sensitivity score [11]: 0
- drug sensitivity score [12]: 4.1
- drug sensitivity score [13]: 4.3

Structure (SMILES): Nc1c(CC(=O)O)cccc1C(=O)c1ccccc1 [amfenac]
- relative viability EC50 [14]: > 10 µM
- relative viability EC50 [1]: > 10 µM
- relative viability EC50 [2]: > 10 µM
- relative viability EC50 [3]: > 10 µM
- cell viability ([4]; 1 nM): 94.1%
- cell viability ([4]; 10 nM): 102%
- cell viability ([4]; 100 nM): 97.2%
- cell viability ([4]; 1000 nM): 102%
- cell viability ([4]; 10000 nM): 102%
- cell viability ([5]; 1 nM): 101%
- cell viability ([5]; 10 nM): 96%
- cell viability ([5]; 100 nM): 102%
- cell viability ([5]; 1000 nM): 97.2%
- cell viability ([5]; 10000 nM): 104%
- cell viability ([6]; 1 nM): 101%
- cell viability ([6]; 10 nM): 97.4%
- cell viability ([6]; 100 nM): 104%
- cell viability ([6]; 1000 nM): 94.1%
- cell viability ([6]; 10000 nM): 97.4%
- cell viability ([7]; 1 nM): 103%
- cell viability ([7]; 10 nM): 105%
- cell viability ([7]; 100 nM): 97.9%
- cell viability ([7]; 1000 nM): 106%
- cell viability ([7]; 10000 nM): 101%
- drug sensitivity score [9]: 0
- drug sensitivity score [10]: 0
- drug sensitivity score [11]: 0
- drug sensitivity score [12]: 0
